From patent publication US20050163801A1, “Method of inducing apoptosis and compositions therefor” (Kyowa Engineering Co., Ltd., priority 2001, published 2005)

Key:
Type in all cases: cell-based
[1] = test system: dendric cells (DC) derived from human peripheral blood monocytes; assay: Immune activation activity: induction of dendritic cells from peripheral blood monocytes, CD80 expression by flow cytometry; conditions: for DCs with increase in expression of CD80: analysed on seventh day
Source text: Dendritic cells are involved in the establishment of immunity. Dendritic cells may also be called arborescent cells, dendritic leukocyte, or D cells. This is the generic term for cell groups having dendritic form derived from myelocytes distributed in various tissue organs in the living body except for the brain. The cell groups include lymphoid dendritic cells, Langerhans cells, veil cells, inter-connected cells, and interstitional cells. Accompanying an inflammation response caused by invasion of foreign matter, the cells perform pinocytosis, and move from a local spot via the vas afferens to an associated lymph node or to the spleen through bloodstream. The cells are known to start an immune response after they reach a T cell-dependent region by presenting an antigen in a form combined with class II antigen and by activating specific T cells. Namely, the cells play an important role in the immune system. In the present example, the immune activation activity of ABMK0415 and ABMK6873 were confirmed by assaying the induction power of monocytes to dendritic cells.
Peripheral blood of two healthy people was used as a material with donor consent.
PBMC were separated from a whole blood specimen which was collected with heparinization by a Ficoll-Paque density centrifugal separation method.
ABMK0415 and ABMK6873 were used as test samples. ABMK0415 and ABMK6873 were respectively dissolved in culture media of cells used for tests (10% FCS added RPMI-1640, 5% human AB serum added RPMI-1640) such that each mixture has a concentration of 200 mg/ml. The mixtures were filter-sterilized through a filter having a pore diameter of 0.22 μm to obtain test samples.
An effect of immune activation of novel compounds was examined in vittro through induction power for dendric cells (DC) derived from human peripheral blood monocytes.
PBMC was processed with a dish treatment for one hour with a carbon dioxide gas incubator. Thus, a monocyte-rich attachment cell fraction was obtained. The cells obtained were cultured in 5% human AB serum added RPMI-1640 (NIKKEN BIOLOGICAL MEDICAL RESEARCH), in the presence of 500 U/ml of GM-CSF (DIACLONE Research) and IL-4(BD Biosciences).
For culturing, a dish (NUNC) having a diameter of 3.5 cm was used. On the sixth day of culture, Picibanil and the novel compound were added such that the final concentration is 0.1 KE/ml for Picibanil, and 200 μg/ml for ABMK0415and ABMK6873. Picibanil (Chugai Pharmaceutical Co., Ltd.) was used as a positive control which has a DC induction power. […]
All DCs in the dish were collected on the seventh day after the culture started. The surface antigen thereof was analyzed by flow cytometry using a monoclonal antibody (anti-CD80; BD Bioscience). […]

HL-60 cell lines = assay: Apoptosis inducing activity (Test 3), TUNEL method; conditions: culture for two days
Experimental: 3. Apoptosis inducing activity (Test 3): Measurement was performed using a terminal deoxynucleotidyl transferase (TdT)-mediated deoxyuridine triphosphate (dUTP)-biotin nick end-labeling method (TUNEL method). The TUNEL method is a method for identifying apoptosis on a tissue slice reported by Gavrieli et al. in 1992 (Yael Gavrieli et al., The Journal of Cell Biology, vol. 119, No.3, November, 1992, p. 493-501). The method is known to be a method which enables observation of apoptosis at the individual cell level at various states of morbidity and allows comparison with morphology changes. The TUNEL method was performed with HL-60 cell lines using Apoptosis in situ Detection Kit wako (Wako Pure Chemical Industries, Ltd.), according to the method of Gavrieli et al., supra.
The results of FIG. 9 show results measured for respective test groups. […] Based on the above results, cell death of HL60 cell lines by ABMK-22 are confirmed to be death caused by the induction of apoptosis.
For identifying the ingredient having the apoptosis induction activity in ABMK-22 obtained in Example 2, ABMK-22 was further purified and fractionated. The obtained ingredient was subjected to the method described in section “3. […]
Next, the apoptosis induction activity of a ly-ophilized powder of ABMK0415 and ABMK6873 were measured as described in section “3. […]

HL60 cell line [2] = assay: Cell growth suppression activity (Test 1), cell number by counting chamber
Experimental: 1. Cell growth suppression activity (Test 1): For assay, the Collagen gel droplet embedded culture-drug sensitivity test (CD-DST method) and a counting chamber were used.
A method using a counting chamber was performed following the method described in Rinsho Kensaho Teiyo (Kanai's Manual of Clinical Laboratory Medicine), 30th Ed. (Aug. 20, 1993; Kanehara & Co., Ltd.; Tokyo).
Based on the results of measurement using HL60 cell lines, it became clear that the CD-DST method is not suitable for measuring the growth state of suspended cells. Therefore, the cell growth suppression activity was measured using a counting chamber.
First, growth of HL60 cell lines was examined in the presence of ABMK-22 at various concentrations to obtain a growth curve of the HL60 line. More specifically, an initial number of cells of HL 60 cell lines was set to be 200,000/ mL. ABMK-22 was added to have concentrations of 0.1, 0.25, 0.5, 0.75, 1, 2, 2.5, 3, 4and 5 mg/1 mL, respectively and cultured. The number of the cells was measured over time for four days.
Each of the symbols in FIG. 1 indicates the result of measurement of the number of the cells (number/ml) in the presence of ABMK-22 at the concentration of the number indicated in the lower part of FIG. 1 by the symbols. […]

HL60 cell line [3] = assay: Cell differentiation inducing activity (Test 2), NBT reduction; conditions: used by itself; NBT reducing power
Experimental: 2. Cell differentiation inducing activity (Test 2): Evaluation was made using Nitro blue tetrazolium (NBT) reduction power. NBT reduction was performed in accordance with the method of S. J. Collins et al. (Int. J. Cancer: 25, pages 213-218 (1980)). In brief, the method is as follows: about 2×10^5 HL60 cells were pelleted, and washed in RPMI-1640 medium. Then, the cells were suspended in RPMI-1640 medium containing 0.1% NBT and 100 ng/ml of phorbol ester (TPA), and cultured for forty minutes at 37° C. The resultant culture was observed under microscope and cells containing blue-black deposits were assessed as differentiated cells. In the presence of ABMK-22 at various concentrations, HL60 cells were cultured for four days and the differentiation inducing power of ABMK-22 was measured. The results of measuring NBT reducing power, which is an indicator of differentiation of a HL60 cell line under each concentration, are shown in FIG. 7. […] At a concentration of 4 mg/mL, about 33% of the cells that were alive were differentiated.

`O=Cc1ccc(CO)n1CCCC(=O)O` [ABMK0415, N-(3-carboxypropyl)-2-formyl-5-hydroxy-methylpyrrole] was tested, and the “DCs with increase in expression of CD80” value ([1]; 200 μg/ml added on sixth day) was “about 20%” and the “cells in which apoptosis was induced (apoptosis positive cells)” value (HL-60 cell lines; 2.07×10^−4M) was “about 35%”.
For `N[C@@H](CCC(=O)NNc1ccc(C=O)cc1)C(=O)O` [ABMK6873], the “expression induction of CD80 molecules” value ([1]; 200 μg/ml added on sixth day) was “remarkably strong expression induction of CD80 molecules”, the “DCs with increase in expression of CD80” value ([1]; 200 μg/ml added on sixth day) was “about 92%” and the DC inducing power ([1]; compared with Picibanil) was “stronger than that of Picibanil”. The “growth of HL-60 cells” value (HL60 cell line [2]; 2.7×10^−4M) was “remarkably suppressed”, the “growth of HL-60 cells” value (HL60 cell line [2]; various concentrations (2.07×10^−6M to 2.07×10^−4M ABMK0415; 2.7×10^−6M to 2.7×10^−4M ABMK6873)) was “suppress growth of HL-60 cells in nearly a concentration-dependent manner” and the “cells in which apoptosis was induced (apoptosis positive cells)” value (HL-60 cell lines; 2.7×10^−4M) was “about 70%”.
For `CC1=C(/C=C/C(C)=C/C=C/C(C)=C/C(=O)O)C(C)(C)CCC1` [ATRA, all-trans retinoic acid], the “concentration at which the agent by itself does not exhibit cell differentiation induction activity” value (HL60 cell line [3]) was ≤ 10^−9 M.
For `C=C1/C(=C\C=C2/CCC[C@]3(C)[C@@H]([C@H](C)CCCC(C)(C)O)CC[C@@H]23)C[C@@H](O)C[C@@H]1O` [VD3, 1α, 25(OH)2D3], the “concentration at which the agent by itself does not exhibit cell differentiation induction activity” value (HL60 cell line [3]) was ≤ 10^−10 M.
